From US20160115540A1, “PRODRUGS AND DRUGS” (Biogen MA Inc., priority 2013, published 2016)
Counter-ions that a name gives are not always drawn.

Test system: blood and tissues
Test: Transcriptional profiling, acute (single) dosing, EAE mice: blood and tissues
Assay type: in vivo
Settings: 100MMF-vs-Veh
Excerpt: EAE induction is generally performed by immunization with brain extracts, CNS proteins (such as myelin basic protein), or peptides from such protein emulsified in an adjuvant such as complete Freund's adjuvant, e.g., as described in Linker et al., Brain. 2011 March 134(Pt3): 678-92. […] FIG. 17 depicts exemplary immunophenotyping panels used to analyze various immune cell populations (e.g., T cells, T regulatory cells, NK cells, B cells, myeloid cells). […] The number of independent mice whose tissues were harvested for transcript profiling studies and whose data passed QC is shown in TABLE 15. Animals were exposed to CO2 and whole blood collected via cardiac puncture. Two 100 μl aliquots of whole blood were collected in 1.5 mL microcentrifuge tubes and snap frozen in liquid nitrogen. Peripheral (liver, spleen, kidney and jejunum) and CNS brain (cerebellum, hippocampus, striatum and cortex) tissues were harvested and snap frozen in liquid nitrogen, with special care taken to collect tissues of similar size and from the same location. All samples were stored at -80° C. until RNA extraction was conducted. For RNA preparation, frozen tissues were placed in 2 mL RNAse-free 96-well blocks with 1.5 mL QIAzol Lysis Reagent (QIAgen) and a 3.2 mm stainless steel bead (BioSpec Products, Bartlesville, Okla.). Tissues were disrupted for four cycles of 45 seconds in a Mini-Beadbeater (Biospec Products). RNA was extracted in chloroform and the aqueous phase was mixed with an equal volume of 70% ethanol. Extracted RNA was applied to RNeasy 96 plates and purified by the spin method according to the manufacturer's protocol (RNeasy 96 Universal Tissue Protocol, QIAgen, Hilden Germany). 50 ul of snap frozen mouse blood was re-suspended in lysis buffer with proteinase K and arrayed into deep-well plates for automated RNA extraction. RNA extractions were completed on […] (Beckman Coulter, Indianapolis, Ind.) using Agencourt RNAdvance Blood kit (Part number A35604) according to the manufacturer's specifications. RNA integrity was assessed using the HT RNA reagent kit (Part number 760410, Caliper Life Sciences, Hopkinton, Mass.) using a LabChip GX (PerkinElmer, Waltham, Mass.). RNA samples with a RQS score of >8.0 were considered high quality for downstream microarray processing. […] Washing and staining of the hybridized arrays were completed as described in the GeneChip Expression analysis technical manual for HT plate arrays using the Genechip® Array Station (Affymetrix, Santa Clara, Calif.) with modifications as described in […] et al. The processed GeneChip® plate arrays were scanned using GeneTitan scanner (Affymetrix, Santa Clara, Calif.). Affymetrix scans were subject to quality control (QC) measures. These tests included a visual inspection of the distribution of raw signal intensities and an assessment of RNA degradation, relative log expression (RLE), and normalized unscaled standard error (NUSE). All sample scans that passed these QC metrics were included in the analysis. […] Nucleic Acids Res 2003; 31:e15; Li C, et al. Genome Biol 2001; 2:[…]0032). […] Stat Appl Genet Mol Biol 2004; 3:Article3). […] Springer Science+Business Media 2005). […] Generally, no distinct sample groupings were apparent from this analysis; however, in the following cohorts, differences in EAE severity across the mice were manifest in global gene expression patterns: An example of this animal grouping is shown in FIG. 33 for the spinal cord from the chronically-dosed 7 h EAE mice. […] Three distinct groups of mice result from unsupervised clustering, and these animal groups correlate with the cumulative EAE score. […] Subsequent analyses for the cohorts listed above only included those animals with the most severe EAE scores; however, for the cohorts 'Spinal Cord, Acute Dosing, 7 h' and 'Spleen, Acute Dosing, 12 h,' there were an insufficient number of mice in the different treatment groups to perform such a sub-analysis. […]

## COC(=O)/C=C/C(=O)O [MMF, monomethyl fumarate]
spleen, 7 h
  FC Gm6159 /// Hnrnpr 1437526_PM_x_at: 1.50
  FC Gsto1 1456036_PM_x_at: 1.51
  FC Hadhb 1437172_PM_x_at: 1.51
  FC Herpud2 1439424_PM_x_at: 1.62
  FC Higd1c /// Mettl7a1 /// Mettl7a2 1434150_PM_a_at: 2.40
  FC Higd1c /// Mettl7a2 1456510_PM_x_at: 1.61
  FC Homer1 1437363_PM_at: 1.60
  FC Itsn1 1435884_PM_at: 1.69
  FC Kctd3 1455816_PM_a_at: 1.51
  FC Kif22 1437716_PM_x_at: 1.68
  FC Klhl7 1428091_PM_at: 1.77
  FC LOC100047324 /// Sesn1 1438931_PM_s_at: 1.52
  FC Lmcd1 1424596_PM_s_at: 1.64
  FC Lnp 1453035_PM_at: 1.69
  FC Lrrtm2 1455489_PM_at: 1.50
  FC Mcm4 1436708_PM_x_at: 1.72
  FC Metap2 1434120_PM_a_at: 1.52
  FC Mettl7a1 1454858_PM_x_at: 1.63
  FC Mkrn1 1434853_PM_x_at: 1.62
  FC Myef2 1425350_PM_a_at: 1.59
  FC Myof 1427318_PM_s_at: 1.52
  FC Ncapd3 1454952_PM_s_at: 1.66
  FC Nfkb1 1427705_PM_a_at: 1.52
  FC Nqo1 (1423627_PM_at): 3.23
  FC Nudt12 1453139_PM_at: 2.17
  FC Otud5 1438985_PM_x_at: 1.51
  FC Pik3r1 1425514_PM_at: 1.62
  FC Pir (1429001_PM_at): 2.78
  FC Polh 1447837_PM_x_at: 1.64
  FC Prkaca 1447720_PM_x_at: 1.53
  FC Prkar1b 1440132_PM_s_at: 1.50
  FC Prpf40a 1429436_PM_at: 1.65
  FC Psmc6 1417770_PM_s_at: 1.77
  FC Psmd9 1447670_PM_at: 1.73
  FC Rab6 1447776_PM_x_at: 1.51
  FC Rad21 1455938_PM_x_at: 1.58
  FC Ranbp2 1422621_PM_at: 1.50
  FC Ranbp2 1445883_PM_at: 1.61
  FC Rbm39 1442745_PM_x_at: 1.54
  FC Rdx 1416179_PM_a_at: 1.53
  FC Rif1 1429490_PM_at: 1.66
  FC Rlim 1439403_PM_x_at: 1.51
  FC Sec24a 1433934_PM_at: 1.50
  FC Smc4 1427275_PM_at: 1.56
  FC Smc6 1460069_PM_at: 1.52
  FC Smpd4 1429530_PM_a_at: 2.04
  FC Sorbs1 1436737_PM_a_at: 1.71
  FC Sp4 1437508_PM_at: 1.67
  FC Srxn1 (1419942_PM_at): 1.82
  FC Srxn1 (1426875_PM_s_at): 1.94
  FC Srxn1 (1451680_PM_at): 1.68
  FC Suz12 1449661_PM_at: 1.56
  FC Svip 1429146_PM_at: 1.59
  FC Tceb1 1452593_PM_a_at: 1.50
  FC Terf1 1443527_PM_at: 1.71
  FC Thoc1 1420042_PM_at: 1.89
  FC Tmem41b 1428586_PM_at: 1.88
  FC Tmem64 1433735_PM_a_at: 1.70
  FC Tnks2 1447522_PM_s_at: 1.63
  FC Tspyl1 1415908_PM_at: 1.66
  FC Ttc14 1437878_PM_s_at: 1.53
  FC Txnl1 1435235_PM_at: 1.59
  FC Usp14 1437714_PM_x_at: 1.57
  FC Zfp800 1456790_PM_at: 1.83
  FC Zfx 1419565_PM_a_at: 1.50
Whole blood, 7 h
  FC 4930427A07Rik 1455818_PM_at: −1.59
  FC Klra3 /// Klra9 1425436_PM_x_at: −2.05
  FC Klra8 1425417_PM_x_at: −2.10
  FC Rnf128 (1449036_PM_at): 1.54
  FC Serpinb6b 1422804_PM_at: −1.64
  FC Xpc 1422532_PM_at: 1.59
Whole blood, 12 h
  FC 1445666_PM_at: 2.14
  FC Prdm2 1453068_PM_at: 1.70
